Test [1] has as its target T1, human recombinant adrenergic α2C receptor (Homo sapiens, UniProt P18825).
T1 construct: expressed in transfected cells; host or cells: insect Sf9 cells
T1 sequence (P18825 1-462): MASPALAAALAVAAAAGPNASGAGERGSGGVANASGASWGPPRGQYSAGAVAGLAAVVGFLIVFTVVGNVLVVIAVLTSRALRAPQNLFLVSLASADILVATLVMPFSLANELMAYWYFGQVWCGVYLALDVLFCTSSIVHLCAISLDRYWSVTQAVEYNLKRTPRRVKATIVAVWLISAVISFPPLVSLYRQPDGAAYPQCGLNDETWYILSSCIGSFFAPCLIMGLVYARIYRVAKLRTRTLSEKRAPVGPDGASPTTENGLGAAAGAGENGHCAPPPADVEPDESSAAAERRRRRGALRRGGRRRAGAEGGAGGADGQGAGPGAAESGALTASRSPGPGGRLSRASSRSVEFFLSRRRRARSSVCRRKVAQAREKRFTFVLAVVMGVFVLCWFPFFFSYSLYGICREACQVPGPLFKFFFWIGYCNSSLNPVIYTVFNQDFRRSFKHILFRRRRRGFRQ
As to the kind of experiment: Adrenergic α2C radioligand binding ([3H]MK-912). The settings on record: read-out: Adrenergic (0.1 μM) a2C, percent inhibition of specific binding; compound at 0.1 μM; 1 nM [3H]MK-912. Here is the method: To evaluate in radioligand binding assays the activity of compounds of the invention, human recombinant adrenergic α2C receptor expressed in insect Sf9 cells (Uhlen, S. et al, J. Pharmacol. Exp. Ther. 271:1558, 1994) in a modified Tris-HCl buffer (50 mM Tris-HCl, pH 7.4, 12.5 mM MgCl2, 2 mM EDTA) was used. Compounds of the invention were incubated with 1 nM [^3H]MK-912 for 60 min at 25° C. Non-specific binding was estimated in the presence of 10 μM WB-4101. Receptor proteins were filtered and washed, the filters were then counted to determine [^3H]MK-912 specifically bound. […] Compounds of the invention were tested in this biochemical assay and percent inhibition of specific binding was determined.

The target in test [2] is T2, human recombinant dopamine D2L receptor (Homo sapiens, UniProt P14416).
T2 construct: expressed in transfected cells; host or cells: CHO
T2 sequence (P14416 whole entry): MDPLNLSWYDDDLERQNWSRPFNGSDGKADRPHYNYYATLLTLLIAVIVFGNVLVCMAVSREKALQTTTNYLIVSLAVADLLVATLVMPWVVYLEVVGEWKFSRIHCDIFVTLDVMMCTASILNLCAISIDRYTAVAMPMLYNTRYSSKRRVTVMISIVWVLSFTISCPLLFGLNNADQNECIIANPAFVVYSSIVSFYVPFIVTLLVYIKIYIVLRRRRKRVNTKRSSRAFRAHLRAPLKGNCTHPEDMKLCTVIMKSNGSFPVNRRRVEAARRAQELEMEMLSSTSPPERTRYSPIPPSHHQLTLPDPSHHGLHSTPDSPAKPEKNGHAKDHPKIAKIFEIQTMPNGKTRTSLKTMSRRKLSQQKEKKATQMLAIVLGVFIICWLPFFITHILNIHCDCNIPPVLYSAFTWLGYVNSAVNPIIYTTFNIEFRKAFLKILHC
Nature of the test: Dopamine D2L radioligand binding ([3H]Spiperone). The settings on record: read-out: Dopamine D2L (1 μM), percent inhibition of specific binding; compound at 1 μM; 0.16 nM [3H]Spiperone. Here is the method:
Non-specific binding was estimated in the presence of 10 μM Haloperidol. Receptor proteins were filtered and washed, the filters were then counted to determine [^3H]Spiperone specifically bound.

Test [3] has as its target T3, human recombinant serotonin (5-Hydroxytryptamine) 5-HT7 receptor (Homo sapiens, UniProt P34969).
T3 construct: expressed in transfected cells; host or cells: CHO
Nature of the test: Serotonin 5-HT7 radioligand binding ([3H]LSD). The following applies: compound at 0.1 μM; read-out: Inhibition of ligand binding, Serotonin 5-HT7 (percent inhibition of specific binding). Here is the method: Lysergic acid diethylamide (LSD) for 120 min. at 25° C. […] Receptor proteins were filtered and washed, the filters were then counted to determine [^3H]LSD specifically bound.

T3 sequence (P34969 whole entry): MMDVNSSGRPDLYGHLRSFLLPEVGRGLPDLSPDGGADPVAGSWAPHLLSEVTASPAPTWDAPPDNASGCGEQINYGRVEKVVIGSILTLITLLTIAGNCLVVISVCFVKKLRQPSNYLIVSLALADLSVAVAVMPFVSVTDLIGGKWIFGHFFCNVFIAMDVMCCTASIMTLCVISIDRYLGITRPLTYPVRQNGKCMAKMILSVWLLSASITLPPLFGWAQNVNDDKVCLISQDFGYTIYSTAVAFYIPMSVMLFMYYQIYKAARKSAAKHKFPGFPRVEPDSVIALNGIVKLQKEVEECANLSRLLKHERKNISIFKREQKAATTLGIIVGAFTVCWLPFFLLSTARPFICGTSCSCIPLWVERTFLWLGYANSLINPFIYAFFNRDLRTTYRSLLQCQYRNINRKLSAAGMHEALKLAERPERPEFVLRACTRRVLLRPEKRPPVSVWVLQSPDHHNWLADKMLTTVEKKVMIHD

Broadly, the inhibition is the drop in the measured response relative to a control, in per cent. Consider `Cc1ccc2c(c1)c1c(n2-c2cccc(-c3cccn3C)c2)CCN(C)C1` [Compound No. 69, 2,8-dimethyl-5-(3-(1-methyl-1H-pyrrol-2-yl)phenyl)-2,3,4,5-tetrahydro-1H-pyrido[4,3-b]indole], for which the inhibition at 0.1 µM in test [1] was -4%; in test [3], 25%. Also, the inhibition at 1 µM in test [2] was 12%.
With `CC(=O)Nc1ccc(-c2cscc2-n2c3c(c4cc(C)ccc42)CN(C)CC3)cn1` [Compound 56], the inhibition at 0.1 µM in test [1] stood at 2%; in test [3] it was 70%. Moreover, in test [2], the inhibition at 1 µM is 10%.
The like results for `Cc1ccc2c(c1)c1c(n2-c2cccc(-c3c(C)noc3C)c2)CCN(C)C1` [Compound No. 65, 4-(3-(2,8-dimethyl-3,4-dihydro-1H-pyrido[4,3-b]indol-5(2H)-yl)phenyl)-3,5-dimethylisoxazole] were, in that order, 8%, 46% and 29%.
As to `Cc1ccc2c(c1)c1c(n2-c2ccc(-c3cncc4ccccc34)cn2)CCN(C)C1` [Compound No. 135, 5-(5-(isoquinolin-4-yl)pyridin-2-yl)-2,8-dimethyl-2,3,4,5-tetrahydro-1H-pyrido[4,3-b]indole], the inhibition at 0.1 µM came to 13% in test [1] and 22% in test [3]. Moreover, in test [2], the inhibition at 1 µM was 12%.
The like results for `Cc1ccc2c(c1)c1c(n2-c2ccc(-c3ccnn3C)cn2)CCN(C)C1` [Compound No. 146, 2,8-dimethyl-5-(5-(1-methyl-1H-pyrazol-5-yl)pyridin-2-yl)-2,3,4,5-tetrahydro-1H-pyrido[4,3-b]indole] were, in that order, -1%, 16% and 5%.
The like results for `Cc1ccc2c(c1)c1c(n2-c2cccc(-c3cc4ccccc4s3)c2)CCN(C)C1` [Compound 51, 5-(3-(benzo[b]thiophen-2-yl)phenyl)-2,8-dimethyl-2,3,4,5-tetrahydro-1H-pyrido[4,3-b]indole] were, in that order, -9%, 13% and 3%.
Consider `Cc1ccc2c(c1)c1c(n2-c2ccc3cnccc3c2)CCN(C)C1` [Compound 38], for which the inhibition at 0.1 µM in test [1] was 11%; in test [3] it was 33%. Moreover, in test [2], the inhibition at 1 µM was 53%.
The matching figures for `CNC(=O)c1ccc(-c2ccccc2-n2c3c(c4cc(C)ccc42)CN(C)CC3)cn1` [Compound No. 71, 5-(2-(2,8-dimethyl-3,4-dihydro-1H-pyrido[4,3-b]indol-5(2H)-yl)phenyl)-N-methylpicolinamide]: -1%, 27% and 10%.
Regarding `Cc1csc(-c2cccc(-n3c4c(c5cc(C)ccc53)CN(C)CC4)c2)c1` [Compound No. 63, 2,8-dimethyl-5-(3-(4-methylthiophen-2-yl)phenyl)-2,3,4,5-tetrahydro-1H-pyrido[4,3-b]indole], the inhibition at 0.1 µM in test [1] came to 10%; in test [3] it was 25%. In addition, in test [2], the inhibition at 1 µM turned out to be 19%.
As to `Cc1cc(C)c2c(c1)c1c(n2-c2cccc3ncccc23)CCN(C)C1` [Compound 47], the inhibition at 0.1 µM worked out at 11% in test [1] and 36% in test [3]. In addition, in test [2], the inhibition at 1 µM was found to be 19%.
For `Cc1ccc2c(c1)c1c(n2-c2cscc2-c2sccc2C)CCN(C)C1` [Compound 39], the inhibition at 0.1 µM in test [1] was 50%; in test [3], 97%. Also, in test [2], the inhibition at 1 µM was 54%.
Take `CNC(=O)c1ccc(-c2cccc(-n3c4c(c5cc(C)ccc53)CN(C)CC4)c2)cn1` [Compound No. 75, 5-(3-(2,8-dimethyl-3,4-dihydro-1H-pyrido[4,3-b]indol-5(2H)-yl)phenyl)-N-methylpicolinamide]: the values for the inhibition at 0.1 µM in test [1] and in test [3] were -3% and 21%, respectively. Besides, the inhibition at 1 µM in test [2] is 18%.
The matching figures for `Cc1ccc2c(c1)c1c(n2-c2ccccc2-c2ccc(F)nc2)CCN(C)C1` [Compound No. 84, 5-(2-(6-fluoropyridin-3-yl)phenyl)-2,8-dimethyl-2,3,4,5-tetrahydro-1H-pyrido[4,3-b]indole]: 23%, 25% and 8%.
The matching figures for `Cc1ccc2c(c1)c1c(n2-c2cccc(-c3cnc(N(C)C)nc3)c2)CCN(C)C1` [Compound 42, 5-(3-(2,8-dimethyl-3,4-dihydro-1H-pyrido[4,3-b]indol-5(2H)-yl)phenyl)-N,N-dimethylpyrimidin-2-amine]: -11%, 31% and 17%.
For `Cc1ccc2c(c1)c1c(n2-c2ccccc2-c2ccc(C)nc2)CCN(C)C1` [Compound 59, 2,8-dimethyl-5-(2-(6-methylpyridin-3-yl)phenyl)-2,3,4,5-tetrahydro-1H-pyrido[4,3-b]indole], the inhibition at 0.1 µM amounted to 25% in test [1] and 48% in test [3]. Moreover, the inhibition at 1 µM in test [2] came to 13%.
For `Cc1ccc2c(c1)c1c(n2-c2ccc(-c3cnn(C)c3)cn2)CCN(C)C1` [Compound No. 134, 2,8-dimethyl-5-(5-(1-methyl-1H-pyrazol-4-yl)pyridin-2-yl)-2,3,4,5-tetrahydro-1H-pyrido[4,3-b]indole], the inhibition at 0.1 µM in test [1] was -2%; in test [3], 4%. Moreover, the inhibition at 1 µM in test [2] is 1%.
As to `Cc1ccc2c(c1)c1c(n2-c2ccc(-c3ccncc3)cn2)CCN(C)C1` [Compound No. 132, 5-(3,4′-bipyridin-6-yl)-2,8-dimethyl-2,3,4,5-tetrahydro-1H-pyrido[4,3-b]indole], the inhibition at 0.1 µM in test [1] was -2%; in test [3], 23%. In addition, the inhibition at 1 µM in test [2] worked out at 18%.
As for `Cc1cc(C)c2c(c1)c1c(n2-c2cccc(-c3ccncc3)c2)CCN(C)C1` [Compound 57, 2,6,8-trimethyl-5-(3-(pyridin-4-yl)phenyl)-2,3,4,5-tetrahydro-1H-pyrido[4,3-b]indole], the inhibition at 0.1 µM in test [1] is 3%; in test [3], 39%. For the same compound, in test [2], the inhibition at 1 µM amounted to 31%.
The matching figures for `Cc1ccc2c(c1)c1c(n2-c2ccc(-c3cccc4[nH]ncc34)cn2)CCN(C)C1` [Compound No. 147, 5-(5-(1H-indazol-4-yl)pyridin-2-yl)-2,8-dimethyl-2,3,4,5-tetrahydro-1H-pyrido[4,3-b]indole]: 1%, 14% and 33%.
Turning to `Cc1ccc2c(c1)c1c(n2-c2ccc3c(c2)CCN(C=O)C3)CCN(C)C1` [Compound No. 77, 6-(2,8-dimethyl-1,2,3,4-tetrahydro-pyrido[4,3-b]indol-5-yl)-3,4-dihydro-1H-isoquinoline-2-carbaldehyde], the inhibition at 0.1 µM in test [1] is 0%; in test [3] it was 35%. In test [2], the inhibition at 1 µM was 14%.
Consider `Cc1ccc2c(c1)c1c(n2-c2cccc(-c3cncc4ccccc34)c2)CCN(C)C1` [Compound No. 67, 5-(3-(isoquinolin-4-yl)phenyl)-2,8-dimethyl-2,3,4,5-tetrahydro-1H-pyrido[4,3-b]indole], for which the inhibition at 0.1 µM in test [1] was found to be 8%; in test [3], 28%. Besides, the inhibition at 1 µM in test [2] came to 61%.
